PubChem BioAssay (NCI)
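Dose response: 5 concentrations. Exposure: 48 h. Format: 96-well plates. Endpoint: linear interpolation; highest concentration if not reached. GI50: concentration for 50% inhibition of growth. At the TGI there is no net growth.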

Key:
Assay in all cases: NCI-60 cell line screen, 48 h
SK-MEL-5 melanoma = tested on: SK-MEL-5 melanoma
NCI/ADR-RES ovarian = tested on: NCI/ADR-RES ovarian
HOP-62 NSCLC = tested on: HOP-62 NSCLC
HCT-15 colon = tested on: HCT-15 colon
SN12C renal = tested on: SN12C renal
UACC-62 melanoma = tested on: UACC-62 melanoma
OVCAR-4 ovarian = tested on: OVCAR-4 ovarian
SNB-19 CNS = tested on: SNB-19 CNS
U251 CNS = tested on: U251 CNS
NCI-H226 lung = tested on: NCI-H226 lung
SK-MEL-28 melanoma = tested on: SK-MEL-28 melanoma
KM12 colon = tested on: KM12 colon
EKVX NSCLC = tested on: EKVX NSCLC
OVCAR-3 ovarian = tested on: OVCAR-3 ovarian
MDA-MB-231 breast = tested on: MDA-MB-231 breast
ACHN renal = tested on: ACHN renal
SF-268 CNS = tested on: SF-268 CNS
COLO 205 colon = tested on: COLO 205 colon
T-47D breast = tested on: T-47D breast
TK-10 renal = tested on: TK-10 renal
MOLT-4 leukemia = tested on: MOLT-4 leukemia
UACC-257 melanoma = tested on: UACC-257 melanoma
HL-60(TB) leukemia = tested on: HL-60(TB) leukemia
A549 NSCLC = tested on: A549 NSCLC
SNB-75 CNS = tested on: SNB-75 CNS
HT29 colon = tested on: HT29 colon
NCI-H23 lung = tested on: NCI-H23 lung
RPMI-8226 leukemia = tested on: RPMI-8226 leukemia
786-0 renal = tested on: 786-0 renal
CAKI-1 renal = tested on: CAKI-1 renal
SR leukemia = tested on: SR leukemia
M14 melanoma = tested on: M14 melanoma
HS 578T breast = tested on: HS 578T breast
MDA-MB-435 = tested on: MDA-MB-435
OVCAR-8 ovarian = tested on: OVCAR-8 ovarian
NCI-H522 lung = tested on: NCI-H522 lung
DU-145 prostate = tested on: DU-145 prostate
SK-MEL-2 melanoma = tested on: SK-MEL-2 melanoma
SW-620 colon = tested on: SW-620 colon
SK-OV-3 ovarian = tested on: SK-OV-3 ovarian
UO-31 renal = tested on: UO-31 renal
HCT-116 colon = tested on: HCT-116 colon
MCF7 breast = tested on: MCF7 breast
BT-549 breast = tested on: BT-549 breast
A498 renal = tested on: A498 renal
LOX IMVI melanoma = tested on: LOX IMVI melanoma
HCC-2998 colon = tested on: HCC-2998 colon
SF-295 CNS = tested on: SF-295 CNS
K-562 leukemia = tested on: K-562 leukemia
CCRF-CEM leukemia = tested on: CCRF-CEM leukemia
IGROV1 ovarian = tested on: IGROV1 ovarian
OVCAR-5 ovarian = tested on: OVCAR-5 ovarian
NCI-H460 lung = tested on: NCI-H460 lung
PC-3 prostate = tested on: PC-3 prostate
MALME-3M melanoma = tested on: MALME-3M melanoma
HOP-92 NSCLC = tested on: HOP-92 NSCLC
SF-539 CNS = tested on: SF-539 CNS
RXF 393 renal = tested on: RXF 393 renal

## COc1ccc2c(c1)N(CCO)C1=C(C(=O)OC1)C2c1ccc(OC)c(OC)c1 (stereo not drawn)
SK-MEL-5 melanoma
  GI50: 2.63 µM
  TGI: 15.5 µM
NCI/ADR-RES ovarian
  GI50: 4.38 µM
  TGI: 45.1 µM
HOP-62 NSCLC
  GI50: 4.89 µM
  TGI: > 100 µM
HCT-15 colon
  GI50: 3.09 µM
  TGI: > 100 µM
SN12C renal
  GI50: 5.8 µM
  TGI: > 100 µM
UACC-62 melanoma
  GI50: 2.13 µM
  TGI: > 100 µM
OVCAR-4 ovarian
  GI50: 4.77 µM
  TGI: > 100 µM
SNB-19 CNS
  GI50: 4.54 µM
  TGI: > 100 µM
U251 CNS
  GI50: 2.97 µM
  TGI: > 100 µM
NCI-H226 lung
  GI50: 2.29 µM
  TGI: 9.55 µM
SK-MEL-28 melanoma
  GI50: 3.33 µM
  TGI: > 100 µM
KM12 colon
  GI50: 1.43 µM
  TGI: 14.7 µM
EKVX NSCLC
  GI50: 6.52 µM
  TGI: > 100 µM
OVCAR-3 ovarian
  GI50: 1.92 µM
  TGI: 4.24 µM
MDA-MB-231 breast
  GI50: 3.63 µM
  TGI: 10.7 µM
ACHN renal
  GI50: 6.3 µM
  TGI: > 100 µM
SF-268 CNS
  GI50: 4.5 µM
  TGI: > 100 µM
COLO 205 colon
  GI50: 2.53 µM
  TGI: 5.93 µM
T-47D breast
  GI50: > 100 µM
  TGI: > 100 µM
TK-10 renal
  GI50: 4.19 µM
  TGI: > 100 µM
MOLT-4 leukemia
  GI50: 4.75 µM
  TGI: > 100 µM
UACC-257 melanoma
  GI50: 3.38 µM
  TGI: > 100 µM
HL-60(TB) leukemia
  GI50: 2.04 µM
  TGI: 5.51 µM
A549 NSCLC
  GI50: 3.86 µM
  TGI: > 100 µM
SNB-75 CNS
  GI50: 2.7 µM
  TGI: > 100 µM
HT29 colon
  GI50: 2.73 µM
  TGI: 7.51 µM
NCI-H23 lung
  GI50: 3.39 µM
  TGI: > 100 µM
RPMI-8226 leukemia
  GI50: 3.78 µM
  TGI: > 100 µM
786-0 renal
  GI50: 3.98 µM
  TGI: > 100 µM
CAKI-1 renal
  GI50: 3.05 µM
  TGI: > 100 µM
SR leukemia
  GI50: 3.68 µM
  TGI: > 100 µM
M14 melanoma
  GI50: 2.44 µM
  TGI: > 100 µM
HS 578T breast
  GI50: 2.88 µM
  TGI: 9.82 µM
MDA-MB-435
  GI50: 0.407 µM
  TGI: 2.13 µM
OVCAR-8 ovarian
  GI50: 3.34 µM
  TGI: > 100 µM
NCI-H522 lung
  GI50: 1.48 µM
  TGI: 5.25 µM
DU-145 prostate
  GI50: 3.01 µM
  TGI: 9.38 µM
SK-MEL-2 melanoma
  GI50: 2.66 µM
  TGI: 11.3 µM
SW-620 colon
  GI50: 3.21 µM
  TGI: > 100 µM
SK-OV-3 ovarian
  GI50: 4.13 µM
  TGI: > 100 µM
UO-31 renal
  GI50: 4.65 µM
  TGI: > 100 µM
HCT-116 colon
  GI50: 2.64 µM
  TGI: 15.3 µM
MCF7 breast
  GI50: 2.67 µM
  TGI: > 100 µM
BT-549 breast
  GI50: 2.98 µM
  TGI: 9.74 µM
A498 renal
  GI50: 1.56 µM
  TGI: 5.93 µM
LOX IMVI melanoma
  GI50: 4.89 µM
  TGI: > 100 µM
HCC-2998 colon
  GI50: 2.61 µM
  TGI: > 100 µM
SF-295 CNS
  GI50: 2.43 µM
  TGI: > 100 µM
K-562 leukemia
  GI50: 1.26 µM
  TGI: > 100 µM
CCRF-CEM leukemia
  GI50: 3.99 µM
  TGI: > 100 µM
IGROV1 ovarian
  GI50: 3.46 µM
  TGI: > 100 µM
OVCAR-5 ovarian
  GI50: 5.76 µM
  TGI: > 100 µM
NCI-H460 lung
  GI50: 3.09 µM
  TGI: 12.6 µM
PC-3 prostate
  GI50: 3.03 µM
  TGI: > 100 µM

## CC1COCCN1CC#CCOC(=O)c1cc2ccccc2oc1=O (stereo not drawn)
SK-MEL-5 melanoma
  GI50: > 100 µM
  TGI: > 100 µM
NCI/ADR-RES ovarian
  GI50: > 100 µM
  TGI: > 100 µM
HOP-62 NSCLC
  GI50: > 100 µM
  TGI: > 100 µM
HCT-15 colon
  GI50: > 100 µM
  TGI: > 100 µM
SN12C renal
  GI50: > 100 µM
  TGI: > 100 µM
UACC-62 melanoma
  GI50: > 100 µM
  TGI: > 100 µM
MALME-3M melanoma
  GI50: > 100 µM
  TGI: > 100 µM
OVCAR-4 ovarian
  GI50: > 100 µM
  TGI: > 100 µM
SNB-19 CNS
  GI50: > 100 µM
  TGI: > 100 µM
U251 CNS
  GI50: > 100 µM
  TGI: > 100 µM
NCI-H226 lung
  GI50: > 100 µM
  TGI: > 100 µM
SK-MEL-28 melanoma
  GI50: > 100 µM
  TGI: > 100 µM
KM12 colon
  GI50: > 100 µM
  TGI: > 100 µM
EKVX NSCLC
  GI50: > 100 µM
  TGI: > 100 µM
OVCAR-3 ovarian
  GI50: > 100 µM
  TGI: > 100 µM
MDA-MB-231 breast
  GI50: > 100 µM
  TGI: > 100 µM
ACHN renal
  GI50: > 100 µM
  TGI: > 100 µM
SF-268 CNS
  GI50: > 100 µM
  TGI: > 100 µM
COLO 205 colon
  GI50: > 100 µM
  TGI: > 100 µM
T-47D breast
  GI50: > 100 µM
  TGI: > 100 µM
TK-10 renal
  GI50: > 100 µM
  TGI: > 100 µM
HOP-92 NSCLC
  GI50: 72.5 µM
  TGI: > 100 µM
MOLT-4 leukemia
  GI50: > 100 µM
  TGI: > 100 µM
UACC-257 melanoma
  GI50: > 100 µM
  TGI: > 100 µM
HL-60(TB) leukemia
  GI50: > 100 µM
  TGI: > 100 µM
A549 NSCLC
  GI50: > 100 µM
  TGI: > 100 µM
SNB-75 CNS
  GI50: 83.4 µM
  TGI: > 100 µM
HT29 colon
  GI50: > 100 µM
  TGI: > 100 µM
SF-539 CNS
  GI50: > 100 µM
  TGI: > 100 µM
NCI-H23 lung
  GI50: > 100 µM
  TGI: > 100 µM
RPMI-8226 leukemia
  GI50: > 100 µM
  TGI: > 100 µM
786-0 renal
  GI50: > 100 µM
  TGI: > 100 µM
CAKI-1 renal
  GI50: > 100 µM
  TGI: > 100 µM
HS 578T breast
  GI50: 62.4 µM
  TGI: > 100 µM
MDA-MB-435
  GI50: > 100 µM
  TGI: > 100 µM
OVCAR-8 ovarian
  GI50: > 100 µM
  TGI: > 100 µM
NCI-H522 lung
  GI50: > 100 µM
  TGI: > 100 µM
RXF 393 renal
  GI50: > 100 µM
  TGI: > 100 µM
DU-145 prostate
  GI50: > 100 µM
  TGI: > 100 µM
SK-MEL-2 melanoma
  GI50: > 100 µM
  TGI: > 100 µM
SW-620 colon
  GI50: > 100 µM
  TGI: > 100 µM
SK-OV-3 ovarian
  GI50: > 100 µM
  TGI: > 100 µM
UO-31 renal
  GI50: > 100 µM
  TGI: > 100 µM
HCT-116 colon
  GI50: > 100 µM
  TGI: > 100 µM
MCF7 breast
  GI50: > 100 µM
  TGI: > 100 µM
BT-549 breast
  GI50: > 100 µM
  TGI: > 100 µM
LOX IMVI melanoma
  GI50: > 100 µM
  TGI: > 100 µM
HCC-2998 colon
  GI50: > 100 µM
  TGI: > 100 µM
SF-295 CNS
  GI50: > 100 µM
  TGI: > 100 µM
K-562 leukemia
  GI50: > 100 µM
  TGI: > 100 µM
CCRF-CEM leukemia
  GI50: > 100 µM
  TGI: > 100 µM
IGROV1 ovarian
  GI50: > 100 µM
  TGI: > 100 µM
OVCAR-5 ovarian
  GI50: > 100 µM
  TGI: > 100 µM
NCI-H460 lung
  GI50: > 100 µM
  TGI: > 100 µM
PC-3 prostate
  GI50: > 100 µM
  TGI: > 100 µM
